Values joined by “and” are separate entries in the source; they are usually repeats but may differ in a detail not shown here. Identical values can stand only once. Like-named read-outs stand apart in the source and are kept apart here.
Tests used:
[1] = tested on: T lymphocytes secreting INFγ; test: ELISPOT count of T lymphocytes secreting INFγ after immunization with LNP-encapsulated SARS-CoV-2 S protein mRNA; assay type: in vivo, BALB/c mice; settings: S protein (1 μg) stimulation, intramuscular Day 0 and Day 14, spleens after 7 days
[2] = assay type: physicochemical
BALB/c mice = test: Transfection efficiency: in vivo bioluminescence of luciferase mRNA encapsulated by different LNP; settings: for Average fluorescence intensity, Leg (intramuscular injection) / Average fluorescence intensity, Liver (tail vein injection): 10 μg/mice; for Total photons number, Leg: intramuscular injection
Procedure: All animals were kept in adaptive feeding for more than 7 days before experiments, free to uptake food and drink water during experimental period, illumination 12/12 h alternating light and dark, room temperature was 20-26° C., humidity was 40-70%.
Experimental method: female BALB/c mice, encapsulated luciferase mRNA with different LNP by four different administrations which included subcutaneous injection (under the armpit), tail vein injection, intraperitoneal injection, intramuscular injection (the tibialis anterior muscle of mouse hind leg); 3, 6, 24, 48 h after administration, applied in vivo fluorescence imaging system (brand: Bruker, model: XTREME) for bioluminescence detection, the specific steps were as follows: substrate preparation: took appropriate amount of substrate Luciferin (brand: Promega) and added saline to make a 10 mg/ml solution, avoided light, injected 100 μl solution into each mouse intraperitoneally. […] Put the anesthetized mouse into machine, set the bioluminescence setting and took the photos, captured the photograph and then adjusted the upper and lower values of photograph, then collected data on the concentrated distribution of fluorescence (e.g., fluorescence intensity, average photons number, and total photons number) and processed data. Statistical analysis: the in vivo imaging outcome were shown in the fluorescence intensity or average of total photons number of different animal in the same tested group, which were used to judge whether the fluorescence intensity or total photon number of luciferase mRNA encapsulated by different LNP were high or low.
The fluorescence intensity and total photons number reflects the transfection efficiency of LNP, the value is higher, referring to the efficiency of delivering encapsulated substance into cell by LNP is higher.

[3] = tested on: S protein specific IgG antibody; assay type: in vivo, BALB/c mice; settings: 14 days after the second immunization, LNP with S protein mRNA, FIG. 5
[4] = LNP with SARS-CoV-2 S protein mRNA, Table 9
[5] = lipid nanoparticle of the ionizable lipid (ionizable lipid/phospholipid/PEG lipid/structural lipid 50/10/1.5/38.5 %) with mRNA, Table 1
[6] = lipid nanoparticle of the ionizable lipid with mRNA, Table 1

Structure (SMILES) | Size (nm) [2, 5] [nm] | Encapsulated percentage (%) [2, 6] [%] | PDI [2, 6] | Total photons number, Leg (BALB/c mice; 5 μg/mice, 3 h) | Total photons number, Leg (BALB/c mice; 5 μg/mice, 6 h) | Total photons number, Leg (BALB/c mice; 5 μg/mice, 24 h) | Total photons number, Leg (BALB/c mice; 1 μg/ mice, 3 h) | Total photons number, Leg (BALB/c mice; 1 μg/ mice, 6 h) | Total photons number, Leg (BALB/c mice; 1 μg/ mice, 24 h) | other results
CCCCC/C=C/C/C=C/CCCCCCCCN(CCCO)CCCCCCCC(=O)OC(CCCCCCCC)CCCCCCCC [A7] | 105.1 | 94.63 | 0.175 |  |  |  |  |  |  | Elispot counted T lymphocytes secreting INFγ ([1]; dose 50 μg): 805 and 700; Encapsulated percentage (%) [2, 4]: 97%; PI [2, 4]: 0.060; Size (nm) [2, 4]: 79 nm; Average fluorescence intensity, Leg (intramuscular injection) (BALB/c mice; 3 h after administration): 1683.2; Average fluorescence intensity, Liver (tail vein injection) (BALB/c mice; 3 h after administration): 21013.1; Average fluorescence intensity, Leg (intramuscular injection) (BALB/c mice; 6 h after administration): 2990.1; Average fluorescence intensity, Liver (tail vein injection) (BALB/c mice; 6 h after administration): 21315.5; Average fluorescence intensity, Leg (intramuscular injection) (BALB/c mice; 24 h after administration): 1436.4; Average fluorescence intensity, Liver (tail vein injection) (BALB/c mice; 24 h after administration): 444.2; S protein specific IgG antibody titer [3]: higher titers of IgG antibodies
CCCCC/C=C/C/C=C/CCCCCCCCN(CCO)CCCCCCCC(=O)OCC(COCCCCCC)(COCCCCCC)COCCCCCC [A20] | 77.17 | 97.09 | 0.121 | 5.99E+08 | 5.65E+08 | 2.03E+08 |  |  |  | 
CCCCC/C=C/C/C=C/CCCCCCCCN(CCCO)CCCCCCCC(=O)OCC(COCCCCCC)(COCCCCCC)COCCCCCC [A21] | 78.3 | 97.20 | 0.098 | 9.07E+08 | 7.11E+08 | 1.62E+08 |  |  |  | 
CCCCCCCCCCCOC(=O)CCCCCN(CCCO)CCCCCCCC(=O)OCC(COCCCCCC)(COCCCCCC)COCCCCCC [A22] | 86.19 | 96.85 | 0.049 | 4.16E+09 | 5.74E+09 | 1.24E+09 |  |  |  | 
CCCCCCCCCCCOC(=O)CCCCCN(CCO)CCCCCCCC(=O)OCC(COCCCCCC)(COCCCCCC)COCCCCCC [A23] | 74.63 | 97.41 | 0.054 | 4.39E+09 | 2.68E+09 | 8.00E+08 |  |  |  | 
CCCCCCOCC(COCCCCCC)(COCCCCCC)COC(=O)CCCCCCCN(CCO)CCCCCCCC(=O)OCC(COCCCCCC)(COCCCCCC)COCCCCCC [A24] | 78.69 | 96.77 |  | 1.94E+08 | 1.56E+08 | 6.31E+07 |  |  |  | 
CCCCCCOCC(COCCCCCC)NC(=O)CCCCCCCN(CCCO)CCCCCCCC(=O)OC(COCCCCCC)COCCCCCC [A25] | 105.3 | 83.60 | 0.094 | 4.23E+08 | 2.49E+08 | 9.50E+07 |  |  |  | 
CCCCCCCCCCCOC(=O)CCCCCN(CCCCCCCC(=O)OC(COCCCCCC)COCCCCCC)CCCNc1c(NC)c(=O)c1=O [A27] | 94.16 | 96.69 | 0.13 |  |  |  | 1.34E+09 | 1.04E+09 | 3.41E+08 | 
CCCCCCOCC(COCCCCCC)OC(=O)CCCCCCCN(CCCCCCCC(=O)OC(COCCCCCC)COCCCCCC)CCCNc1c(NC)c(=O)c1=O [A28] | 91.19 | 89.72 | 0.13 |  |  |  | 6.50E+08 | 4.26E+08 | 1.83E+08 | 
CCCCCCCCCCCOC(=O)CCCCCN(CCO)CCCCCCCC(=O)OC(CCCCCCCC)CCCCCCCC [A33, reference compound] |  |  |  | 5.20E+08 | 4.62E+08 | 1.63E+08 | 1.41E+08 | 2.35E+08 | 5.84E+07 | Elispot counted T lymphocytes secreting INFγ ([1]; dose 4 μg): 32 and 42; Elispot counted T lymphocytes secreting INFγ ([1]; dose 50 μg): 310 and 338; Encapsulated percentage (%) [2, 4]: 95%; PI [2, 4]: 0.104; Size (nm) [2, 4]: 76 nm; Average fluorescence intensity, Leg (intramuscular injection) (BALB/c mice; 3 h after administration): 1065.5; Average fluorescence intensity, Liver (tail vein injection) (BALB/c mice; 3 h after administration): 2841.8; Average fluorescence intensity, Leg (intramuscular injection) (BALB/c mice; 6 h after administration): 1117.9; Average fluorescence intensity, Liver (tail vein injection) (BALB/c mice; 6 h after administration): 3144.6; Average fluorescence intensity, Leg (intramuscular injection) (BALB/c mice; 24 h after administration): 418.8; Average fluorescence intensity, Liver (tail vein injection) (BALB/c mice; 24 h after administration): 100.0; S protein specific IgG antibody titer [3]: higher titers of IgG antibodies
CCCCC/C=C\C/C=C\CCCCCCCCC(CCCCCCCC/C=C\C/C=C\CCCCC)OC(=O)CCCN(C)C [MC3, reference compound] | 86.7 | 92.00 | 0.10 |  |  |  | 3.43E+08 | 7.41E+08 | 2.86E+08 | 
